From publication PMC10190849, “Rationally designed modular drug delivery platform based on intracellular peptide self‐assembly” (Exploration, 2021)
No end group written: not given here. *: point of attachment. FITC = O=C1OC2(c3ccc(O)cc3Oc3cc(O)ccc32)c2ccc(NC(=S)*)cc21

Tests used:
[1] = TEM imaging of assembled morphology and diameters; format: physicochemical; details: result in words
From the text: To further confirm our speculation, we observe the assembled morphology of these molecules under its CAC concentrations. […] As those results indicated, the modification position of fluorescence molecules largely influenced the dispersity of designed molecules. […] As a threshold, the %SASA value around 75% distinguishes between assembly and soluble states. Thus, the optimal choice for modification position is decisive in %SASA regulation for successful molecular design.
In order to achieve a highly ordered superstructure in vivo, it is necessary to transfer the precursor with higher CAC content to the monomer with lower CAC content at the desired position under the trigger of some chemical reactions. In this work, the pre‐designed molecules trigger the conversion of precursors to monomers transformation through enzyme‐directed hydrolysis, and the substrate (DEVD) was cleaved by caspase 3/7. Due to the increased hydrophobicity and conformational changes, the resultant product further self‐assembled into the required superstructure. The previous study in this work confirmed five molecules with higher dispersity (Pβ‐R4C, Pα‐R4C, Pβ‐R4F, Pβ‐R4P, Pβ‐R4C‐D). Here, we studied the self‐assembly properties of […] related residues of these highly soluble molecules (R‐R4C, R‐R4F, R‐R4P, R‐R4C‐D).^[ [21] ^] […]

[2] = ThT (Thioflavin T) assay, critical aggregation/assembly concentration and dispersibility; format: physicochemical; details: dose dependent assembling profile after incubation with ThT, Figure 3A
Description: For intracellular self-assembly, the rapid transformation from dispersed state to aggregate state in desired site is required. In other words, the molecules need to be stable monomeric states at other locations and present self-assembled states at the required locations. Therefore, location-specific self-assembly characteristics are the decisive factors for the success of molecular design. […] Then, different modification on four domains were carried out to evaluate its dispersity and self-assembly properties. We carried out ThT (Thioflavin T) analytic assay to evaluate whether those predesigned molecules presented relatively dispersed state. ThT is a sensitive probe to the lamellar β-sheet structure. When exposed to the lamellar β-sheet structure, ThT fluorescence was enhanced due to inserting into the lamellar structure.^[ [17] ^] […] In order to validate our hypophysis and quantitively determine the solubility of those molecules, we calculated the critical assembly concentration (CAC) of those molecules based on the ThT analysis. […] However, other molecules with R4 domain modifications all presented a higher CAC with ≥400 μM. […] ThT assay: the ThT assay was utilized to calculate the critical assembling concentration. […] Next, the fluorescence of ThT was measured with the excitation wavelength with 450 nm. Finally, the fluorescence intensity was recorded and normalized.

[3] = test system: XIAP negative cell line L929; assay: CLSM imaging of cells coincubated with MDS molecules, XIAP negative cell line; format: cell-based; details: 50 μM, 37 °C, 1 h, PBS washing
Description: (§1) Drug delivery efficacy is one of the decisive factors for evaluating the drug delivery systems.
(§2) Cell culturing and CLSM imaging: H460, 786-O, L929 cell lines and EJ, RT112 cell lines were cultured in PRMI-1640 and DMEM respectively with 10% (v: v) fetal bovine serum, 1% penicillin–streptomycin in an incubator (Thermo Scientific) at 37 °C with 5% CO2 and 95% relative humidity. For observing the selectivity of MDS by CLSM imaging, all the cell lines were seeded with 1 x 10^5 cells per well, and cultured for 24 h, the cells were incubated with 50 μM Pβ-R4C and Pβ-R4F respectively at 37 °C for 1 h and followed by PBS washing. Subsequently, the cells were stained with Hoechst 33342 (1 mg ml^-1) at 37 °C for 10 min. Finally, the cells were washed by PBS twice and immediately observed under confocal laser scanning microscopy. For observing the selective drug accumulation by CLSM imaging, the H460 cell and L929 cells were seeded with 1 x 10^5 cells per well, and cultured for 24 h, then cells were incubated with 50 μM Pβ-R4C-D for 1 h, followed by PBS washing and observed by CLSM.

[4] = test system: XIAP positive cell lines (H460, 786-O, EJ, RT112); assay: CLSM imaging of cells coincubated with MDS molecules, XIAP positive cell lines; format: cell-based; details: 50 μM, 37 °C, 1 h, PBS washing
From the text: as §1
In order to evaluate the drug delivery efficacy, we directly observed the Py fluorescence by CLSM imaging. […] In addition, we performed the cell section analysis and directly observed the morphology of assemblies intracellularly (Figure 8D). The intracellular formed nanofibers confirmed the controllable in situ assembly of MDS. All those results verified that the drug delivery system was feasible for highly efficient drug delivery.
as §2, with “For observing the selective drug accumulation by CLSM imaging, the H460 cell and L929 cells were seeded with 1 x 10^5 cells per well, and cultured for 24 h, then cells were incubated with 50 μM Pβ-R4C-D for 1 h, followed by PBS washing and observed by CLSM.” left out

Substance	assembled morphology (TEM) [1]	molecular concentration at which ThT fluorescence obviously increased [2] [µM]	fluorescent signal in cells (CLSM) [3]	fluorescent signal in cells (CLSM) [4]
AVPIAQKDEVDGC(Cy)KLVFFAEG [Pβ-R2C, Pβ with GC on R2 domain conjugated with Cy]	nanofibrous structures	200	–	–
AVPIAQKDEVDKLVFFAEC(Cy)G [Pβ-R4C, Pβ with fluorescent molecule Cy linked in R4 domain]	–	–	No obvious fluorescent signal	strong Cy and FITC fluorescent signal
AVPIAQKDEVDKLVFFAEC(FITC)G [Pβ-R4F, Pβ with FITC in R4 domain]	–	–	No obvious fluorescent signal	strong Cy and FITC fluorescent signal
